Results from article PMC8455218, “A Cornflower Extract Containing N-Feruloylserotonin Reduces Inflammation in Human Skin by Neutralizing CCL17 and CCL22 and Inhibiting COX-2 and 5-LOX” (Mediators of Inflammation, 2021).

Molecular target: T1, Macrophage-Derived Chemokine (MDC/CCL22) (Homo sapiens, UniProt O00626)
T1 sequence (O00626 25-93): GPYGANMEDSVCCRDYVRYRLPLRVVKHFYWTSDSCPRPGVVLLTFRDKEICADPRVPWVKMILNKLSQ
Assay: TRIC-r calcium mobilization, Indo-1, EGFP-CCR4+Gqi5+ HEK cells
Format: cell-based

**Q.** For `COc1cc(/C=C/C(=O)NCCc2c[nH]c3ccc(O)cc23)ccc1O` [N-Feruloylserotonin], which IC50 is on record?
**A.** 15 µM
